# Target: T1, NAD-dependent protein deacetylase sirtuin-1 (Homo sapiens) (UniProt Q96EB6)
# T1 sequence (whole entry): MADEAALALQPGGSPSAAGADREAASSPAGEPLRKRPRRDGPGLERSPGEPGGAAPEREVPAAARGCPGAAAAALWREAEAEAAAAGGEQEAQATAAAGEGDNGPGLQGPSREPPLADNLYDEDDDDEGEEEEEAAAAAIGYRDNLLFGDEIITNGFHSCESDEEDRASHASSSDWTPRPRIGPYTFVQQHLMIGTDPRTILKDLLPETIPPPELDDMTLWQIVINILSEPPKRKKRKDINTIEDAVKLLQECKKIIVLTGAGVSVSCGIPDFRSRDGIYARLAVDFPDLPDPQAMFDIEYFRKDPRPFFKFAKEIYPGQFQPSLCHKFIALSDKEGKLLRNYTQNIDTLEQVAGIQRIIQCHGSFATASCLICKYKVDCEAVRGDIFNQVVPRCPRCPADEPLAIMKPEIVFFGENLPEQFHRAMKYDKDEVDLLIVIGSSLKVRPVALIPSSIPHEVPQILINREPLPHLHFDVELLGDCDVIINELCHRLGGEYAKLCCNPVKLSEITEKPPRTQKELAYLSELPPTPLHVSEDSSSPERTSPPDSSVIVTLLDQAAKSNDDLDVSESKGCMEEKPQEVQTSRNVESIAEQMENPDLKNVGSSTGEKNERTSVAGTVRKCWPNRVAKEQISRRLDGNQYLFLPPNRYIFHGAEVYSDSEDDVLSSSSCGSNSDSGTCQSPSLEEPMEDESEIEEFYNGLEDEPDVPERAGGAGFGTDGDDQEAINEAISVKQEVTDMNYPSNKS
# Details: Sf9
row,ΔTm,Structure (SMILES)
1,10 °C,NC(=O)[C@@H]1CCCCc2c1[nH]c1ccc(Cl)cc21
2,10 °C,NC(=O)[C@@H]1CCCc2c1[nH]c1ccc(Cl)cc21

# From ChEMBL document CHEMBL2311441
